Test results taken from patent US20090286695A1, “LUMINESCENT STEM CELLS AND USES THEREOF” (AXXAM S.P.A., priority 2006, published 2009).

Assays:
Assay type in all cases: cell-based, mouse
[1] = system: Voltage-gated Calcium Channels; test: CCD camera-based luminometer test on neurons differentiated from P19/mito c-Photina/1A1 clone; details: 40 mM; differentiation day 8 and 11; 384 MTP; tyrode as control; FIG. 21
Experimental: At day 8 and day 11 of the neuronal differentiation protocol (respectively 4 and 7 days after seeding in poly D-lysine coated 384 MTP), neurons differentiated from P19/mito c-Photina®/1A1 clone were incubated with 25 μl/well of 10 μM coelenterazine in standard tyrode buffer, for 4 hrs at 37° C.
Response to a depolarizing stimulus induced by injection of 40 mM KCl was recorded at CCD camera-based luminometer (conditions: high sensitivity, reading time 60 seconds).
The functionality of these cells was also investigated at CCD camera-based luminometer. At differentiation day 8 and 11 (respectively 4 and 7 days after disaggregation of Embryoid Bodies and seeding on poly D-lysine in 384 MTP), the cells were incubated for 4 h with a tyrode solution containing 10 μM coelenterazine.

[2] = system: neurons differentiated from P19/mito c-Photina/1A1 clone; test: FLIPR384 Fluo-4 NW test on neurons differentiated from P19/mito c-Photina/1A1 clone; details: 40 mM, differentiation day 8, FIG. 22
Experimental: 12.5 μl/well of 120 mM KCl (3×) solution was injected, and the fluorescence signal was recorded for 360 sec and expressed as RFU (Relative Fluorescence Units).
At differentiation day 8 the same cells were analyzed also at FLIPR^384 incubating the cells with FLUO-4 NW® and injecting 40 mM KCl depolarizing agent.

[3] = system: Metabotropic or Ionotropic Glutamate Receptors; test: FLIPR384 Fluo-4 NW calcium test on undifferentiated and neuron-differentiated P19/mito c-Photina/1A1 clone; details: 100 μM final; undifferentiated cells vs day 8 neurons; FIG. 23
Experimental: Concerning undifferentiated P19/mito c-Photina®/1A1 clone, 3000 cells/well were seeded in gelatin coated 384 well plates. 24 h after seeding the cells were incubated with 25 μl/well of Fluo-4 NW® calcium sensitive fluorescent dye in the dark.
Concerning neurons differentiated from P19/mito c-Photina®/1A1 clone, at day 8 of the neuronal differentiation protocol (4 days after seeding in poly D-lysine coated 384 well plates) cells were incubated with 25 μl/well of Fluo-4 NW® calcium sensitive fluorescent dye in the dark.
Both plates were incubated for 30 minutes at 37° C. and then for 30 minutes at room temperature.
12.5 μl/well of the following 3× compounds in tyrode buffer were injected, and the fluorescence signal was recorded for 330 sec and expressed as RFU.
The same experiment was in contemporary performed on undifferentiated P19/mito c-Photina® 1A1 clone (at 24 h after seeding of 3000 cells/well in 384 MTP, FIG. 23A).

α1-Adrenergic Receptor = test: CCD camera-based luminescent functional test on cardiomyocytes differentiated from ES/mito c-Photina/29 clone; details: 100 μM; 20,000 c/w in 96 MTP; 10 μM coelenterazine; high sens., 60 sec; FIG. 8A
[4] = system: GqPCR Endothelin Receptors; test: as above; details: 50 nM; 20,000 c/w in 96 MTP; 10 μM coelenterazine; high sens., 60 sec; FIG. 8A
Experimental: CCD-Camera Based Luminometer Measurements with Cardiomyocytes • EBs were dissociated at differentiation day 9 with Accutase™ (Chemicon, Cat. N. SCR005), counted and incubated (20000 cells/well in a 96 MTP) in 10 μM coelenterazine in standard tyrode buffer (for the test on GqPCRs) and in tyrode without KCl (for the test on L-type Calcium Channels) for 3 hrs at 37° C. • The tests were run 3 h after cell seeding. • The responses to 50 nM Endothelin-1, 100 μM Noraepinephrine were measured at the CCD camera-based luminometer (conditions: high sensitivity, reading time 60 seconds). • The Voltage gated Calcium Channels were stimulated with 40 mM KCl. The specificity of the channels was checked incubating the cells 15 minutes before he measurement with 5 μM Nifedipine (a specific L-type Voltage-gated Calcium Channel inhibitor) (SIGMA, Cat. N. N7634). • Residual total photoprotein activity was measured after Triton X-100 cell lysis at the CCD camera-based luminometer (conditions: high sensitivity, for 30 seconds). Neuronal Differentiation Protocol with the Embryoid Bodies (EBs) Formation Step
Preliminary functional tests were performed at the CCD camera-based luminometer instrument after Embryoid Bodies disaggregation with Accutase® buffer and resuspension in 10 μM coelenterazine tyrode buffer. The cells were counted and seeded at a cellular concentration of 20,000 c/w in a 96 MTP. […]

[Cl-].[K+] [KCl]
luminescence response to depolarizing stimulus [1]: optimal responses | fluorescence signal (calcium entry) after depolarizing agent [2]: sensible increase of the signal

N[C@@H](CCC(=O)O)C(=O)O [Glutamate]
fluorescence signal after stimulation, undifferentiated vs differentiated cells [3]: much higher in the differentiated cells than in the undifferentiated ones

NC[C@H](O)c1ccc(O)c(O)c1 [Norephinephrine]
luminescence response (calcium) to agonist (α1-Adrenergic Receptor): strong

Endothelin-1
luminescence response (calcium) to agonist [4]: strong
